Tested on: SCPMA (Bolboschoenus maritimus or Schoenoplectus maritimus, sea clubrush)
Experiment: In-water applied weed control, transplanted paddy rice, greenhouse (Example II)
Type: in vivo, Bolboschoenus maritimus (L.) Palla
Outline: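 Transplanted rice and weeds at first to fourth true leaf stage in flooded mud pots (2.5–3 cm water), greenhouse ~29/26 °C day/night. Herbicides alone or mixed, in 1.25% crop oil concentrate (acetone for technical material), injected into the flood; visual 0–100% injury after ~3 weeks, expected mixture effects by Colby.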

COC(=O)c1ccccc1CS(=O)(=O)NC(=O)Nc1nc(OC)cc(OC)n1 [Bensulfuron-methyl, methyl 2-[[[[[(4,6-dimethoxy-2-pyrimidinyl)amino]carbonyl]amino]sulfonyl]methyl]benzoate, reference compound]
Visual Weed Control (%) - 21 DAA SCPMA Obs (Table 32, 17.5 gai/ha alone): 45%
Visual Weed Control (%) - 21 DAA SCPMA Obs (Table 32, 35 gai/ha alone): 90%

COc1c(Cl)ccc(-c2nc(C(=O)OCc3ccccc3)c(Cl)c(N)c2F)c1F [Compound A Benzyl Ester]
Visual Weed Control (%) - 20 DAA SCPMA Obs (Table 29, 4.38 gae/ha alone): 10%
Visual Weed Control (%) - 20 DAA SCPMA Obs (Table 29, 8.75 gae/ha alone): 0%
Visual Weed Control (%) - 20 DAA SCPMA Obs (Table 29, 17.5 gae/ha alone): 20%
Visual Weed Control (%) - 20 DAA SCPMA Obs (Table 29, 35 gae/ha alone): 0%
Visual Weed Control (%) - 20 DAA SCPMA Obs (Table 29, 70 gae/ha alone): 0%
Visual Weed Control (%) - 21 DAA SCPMA Obs (Table 32, 48 gae/ha alone): 0%
Visual Weed Control (%) - 21 DAA SCPMA Obs (Table 32, 96 gae/ha alone): 0%
Visual Weed Control (%) - 21 DAA SCPMA Obs (Table 33, 8 gae/ha alone): 0%
Visual Weed Control (%) - 21 DAA SCPMA Obs (Table 33, 16 gae/ha alone): 0%
Visual Weed Control (%) - 21 DAA SCPMA Obs (Table 33, 32 gae/ha alone): 0%
Visual Weed Control (%) - 20 DAA SCPMA Obs (Table 39, 35 gae/ha alone): 0%
Visual Weed Control (%) - 20 DAA SCPMA Obs (Table 39, 70 gae/ha alone): 0%
Visual Weed Control (%) - 20 DAA SCPMA Obs (Table 46, 35 gae/ha alone): 0%
Visual Weed Control (%) - 20 DAA SCPMA Obs (Table 46, 70 gae/ha alone): 0%
Visual Weed Control (%) - 21 DAA SCPMA Obs (Table 48, 8 gae/ha alone): 0%
Visual Weed Control (%) - 21 DAA SCPMA Obs (Table 48, 16 gae/ha alone): 0%
Visual Weed Control (%) - 21 DAA SCPMA Obs (Table 48, 32 gae/ha alone): 0%

COc1c(Cl)ccc(-c2nc(C(=O)O)c(Cl)c(N)c2F)c1F [Compound A Acid, 4-amino-3-chloro-5-fluoro-6-(4-chloro-2-fluoro-3-methoxy-phenyl)pyridine-2-carboxylic acid]
Visual Weed Control (%) - 20 DAA SCPMA Obs (Table 28, 8.75 gae/ha alone): 40%
Visual Weed Control (%) - 20 DAA SCPMA Obs (Table 28, 17.5 gae/ha alone): 20%
Visual Weed Control (%) - 20 DAA SCPMA Obs (Table 28, 35 gae/ha alone): 20%
Visual Weed Control (%) - 20 DAA SCPMA Obs (Table 28, second set, 70 gae/ha alone): 0%
Visual Weed Control (%) - 20 DAA SCPMA Obs (Table 38, 35 gae/ha alone): 0%
Visual Weed Control (%) - 20 DAA SCPMA Obs (Table 38, 70 gae/ha alone): 0%
Visual Weed Control (%) - 20 DAA SCPMA Obs (Table 45, 42.4 gae/ha alone): 0%
Visual Weed Control (%) - 20 DAA SCPMA Obs (Table 45, 84.8 gae/ha alone): 0%

— patent publication US8871681B2, “Herbicidal compositions comprising 4-amino-3-chloro-5-fluoro-6-(4-chloro-2-fluoro-3-methoxyphenyl) pyridine-2-carboxylic acid or a derivative thereof and certain sulfonylureas” (Dow AgroSciences LLC, priority 2012, dated 2014)
